Measurements: PubChem BioAssay AID1963433 (Molecular Pharmacology Branch, DTP, NCI, 2024)

Test system: 772245-204-R-J1-PDC complex spheroid growth
Assay: Anticancer human tumor 772245-204-R-J1-PDC patient-derived rhabdomyosarcoma cell line growth inhibition [Asc]
Conditions: for IC50: curve of first compound; for viability, T/C: stronger effect = lower value
How it was run: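 Spheroid model: tumor line + HUVEC + hMSC. Single agents and combinations; top conc. at/near clinical Cmax (10 microM if undetermined), half-log dilutions. DMSO stocks at 800-fold test concentration.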

[1] = second compound 0.01 µM, first compound 0.0316 µM
[2] = second compound 0.01 µM, first compound 0.1 µM
[3] = second compound 0.0316 µM, first compound 0.0316 µM
[4] = second compound 0.0316 µM, first compound 0.1 µM
[5] = second compound 0.1 µM, first compound 0.0316 µM
[6] = second compound 0.1 µM, first compound 0.1 µM
[7] = second compound 0.316 µM, first compound 0.0316 µM
[8] = second compound 0.316 µM, first compound 0.1 µM
[9] = second compound 1 µM, first compound 0.0316 µM
[10] = second compound 1 µM, first compound 0.1 µM
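Also: compound exposure lasted seven days.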
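For viability, T/C in this document: 100% = DMSO vehicle control viability.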

Cc1nc(N2CCC3(CC2)COC(C)C3N)c(CO)nc1Sc1ccnc(N)c1Cl (configuration not stated) + CNC(C)C(=O)NC1CN(S(=O)(=O)c2cccc(S(=O)(=O)N3CCC4CCC(C(=O)NC(c5ccccc5)c5ccccc5)N4C(=O)C(NC(=O)C(C)NC)C3)c2)CCC2CCC(C(=O)NC(c3ccccc3)c3ccccc3)N2C1=O
IC50 (second compound 0.00316 µM): > 3 µM
IC50 (second compound 0.01 µM): > 3 µM
IC50 (second compound 0.0316 µM): > 3 µM
IC50 (second compound 0.1 µM): > 3 µM
IC50 (second compound 0.316 µM): > 3 µM
IC50 (second compound 1 µM): > 3 µM
viability, T/C (second compound 0.00316 µM, first compound 0.00949 µM): 101%
viability, T/C (second compound 0.00316 µM, first compound 0.03 µM): 105%
viability, T/C (second compound 0.00316 µM, first compound 0.0949 µM): 109%
viability, T/C (second compound 0.00316 µM, first compound 0.3 µM): 105%
viability, T/C (second compound 0.00316 µM, first compound 0.949 µM): 115%
viability, T/C (second compound 0.00316 µM, first compound 3 µM): 92.9%
viability, T/C (second compound 0.01 µM, first compound 0.00949 µM): 108%
viability, T/C (second compound 0.01 µM, first compound 0.03 µM): 93.4%
viability, T/C (second compound 0.01 µM, first compound 0.0949 µM): 107%
viability, T/C (second compound 0.01 µM, first compound 0.3 µM): 117%
viability, T/C (second compound 0.01 µM, first compound 0.949 µM): 102%
viability, T/C (second compound 0.01 µM, first compound 3 µM): 75.4%
viability, T/C (second compound 0.0316 µM, first compound 0.00949 µM): 104%
viability, T/C (second compound 0.0316 µM, first compound 0.03 µM): 99.3%
viability, T/C (second compound 0.0316 µM, first compound 0.0949 µM): 105%
viability, T/C (second compound 0.0316 µM, first compound 0.3 µM): 101%
viability, T/C (second compound 0.0316 µM, first compound 0.949 µM): 88.3%
viability, T/C (second compound 0.0316 µM, first compound 3 µM): 78.6%
viability, T/C (second compound 0.1 µM, first compound 0.00949 µM): 105%
viability, T/C (second compound 0.1 µM, first compound 0.03 µM): 99.1%
viability, T/C (second compound 0.1 µM, first compound 0.0949 µM): 88.4%
viability, T/C (second compound 0.1 µM, first compound 0.3 µM): 98.6%
viability, T/C (second compound 0.1 µM, first compound 0.949 µM): 99.6%
viability, T/C (second compound 0.1 µM, first compound 3 µM): 75.9%
viability, T/C (second compound 0.316 µM, first compound 0.00949 µM): 101%
viability, T/C (second compound 0.316 µM, first compound 0.03 µM): 90.6%
viability, T/C (second compound 0.316 µM, first compound 0.0949 µM): 91.4%
viability, T/C (second compound 0.316 µM, first compound 0.3 µM): 99.1%
viability, T/C (second compound 0.316 µM, first compound 0.949 µM): 86.8%
viability, T/C (second compound 0.316 µM, first compound 3 µM): 74.7%
viability, T/C (second compound 1 µM, first compound 0.00949 µM): 95.8%
viability, T/C (second compound 1 µM, first compound 0.03 µM): 89%
viability, T/C (second compound 1 µM, first compound 0.0949 µM): 104%
viability, T/C (second compound 1 µM, first compound 0.3 µM): 90.6%
viability, T/C (second compound 1 µM, first compound 0.949 µM): 93.6%
viability, T/C (second compound 1 µM, first compound 3 µM): 66.9%

Cn1ncnc1[C@H]1c2n[nH]c(=O)c3cc(F)cc(c23)N[C@@H]1c1ccc(F)cc1 + CNC(C)C(=O)NC1CN(S(=O)(=O)c2cccc(S(=O)(=O)N3CCC4CCC(C(=O)NC(c5ccccc5)c5ccccc5)N4C(=O)C(NC(=O)C(C)NC)C3)c2)CCC2CCC(C(=O)NC(c3ccccc3)c3ccccc3)N2C1=O
IC50 (second compound 0.01 µM): > 0.1 µM
IC50 (second compound 0.0316 µM): > 0.1 µM
IC50 (second compound 0.1 µM): > 0.1 µM
IC50 (second compound 0.316 µM): > 0.1 µM
IC50 (second compound 1 µM): > 0.1 µM
viability, T/C (second compound 0.01 µM, first compound 0.000316 µM): 85.5%
viability, T/C (second compound 0.01 µM, first compound 0.001 µM): 83.7%
viability, T/C (second compound 0.01 µM, first compound 0.00316 µM): 91.7%
viability, T/C (second compound 0.01 µM, first compound 0.01 µM): 90%
viability, T/C [1]: 91%
viability, T/C [2]: 76.1%
viability, T/C (second compound 0.0316 µM, first compound 0.000316 µM): 98.9%
viability, T/C (second compound 0.0316 µM, first compound 0.001 µM): 94.9%
viability, T/C (second compound 0.0316 µM, first compound 0.00316 µM): 99.7%
viability, T/C (second compound 0.0316 µM, first compound 0.01 µM): 97.1%
viability, T/C [3]: 85%
viability, T/C [4]: 94.2%
viability, T/C (second compound 0.1 µM, first compound 0.000316 µM): 97%
viability, T/C (second compound 0.1 µM, first compound 0.001 µM): 96.6%
viability, T/C (second compound 0.1 µM, first compound 0.00316 µM): 85.7%
viability, T/C (second compound 0.1 µM, first compound 0.01 µM): 102%
viability, T/C [5]: 81.7%
viability, T/C [6]: 79.4%
viability, T/C (second compound 0.316 µM, first compound 0.000316 µM): 97.3%
viability, T/C (second compound 0.316 µM, first compound 0.001 µM): 96.2%
viability, T/C (second compound 0.316 µM, first compound 0.00316 µM): 96.1%
viability, T/C (second compound 0.316 µM, first compound 0.01 µM): 82.2%
viability, T/C [7]: 89.2%
viability, T/C [8]: 94.4%
viability, T/C (second compound 1 µM, first compound 0.000316 µM): 112%
viability, T/C (second compound 1 µM, first compound 0.001 µM): 88.4%
viability, T/C (second compound 1 µM, first compound 0.00316 µM): 97.8%
viability, T/C (second compound 1 µM, first compound 0.01 µM): 85.3%
viability, T/C [9]: 84.2%
viability, T/C [10]: 85.6%

O=C(c1cc(Cc2n[nH]c(=O)c3ccccc23)ccc1F)N1CCN(C(=O)C2CC2)CC1 + CNC(C)C(=O)NC1CN(S(=O)(=O)c2cccc(S(=O)(=O)N3CCC4CCC(C(=O)NC(c5ccccc5)c5ccccc5)N4C(=O)C(NC(=O)C(C)NC)C3)c2)CCC2CCC(C(=O)NC(c3ccccc3)c3ccccc3)N2C1=O
IC50 (second compound 0.01 µM): > 10 µM
IC50 (second compound 0.0316 µM): > 10 µM
IC50 (second compound 0.1 µM): > 10 µM
IC50 (second compound 0.316 µM): > 10 µM
IC50 (second compound 1 µM): > 10 µM
viability, T/C [1]: 93.6%
viability, T/C [2]: 99.7%
viability, T/C (second compound 0.01 µM, first compound 0.316 µM): 99%
viability, T/C (second compound 0.01 µM, first compound 1 µM): 98.5%
viability, T/C (second compound 0.01 µM, first compound 3.16 µM): 80.5%
viability, T/C (second compound 0.01 µM, first compound 10 µM): 81.1%
viability, T/C [3]: 106%
viability, T/C [4]: 104%
viability, T/C (second compound 0.0316 µM, first compound 0.316 µM): 88.6%
viability, T/C (second compound 0.0316 µM, first compound 1 µM): 113%
viability, T/C (second compound 0.0316 µM, first compound 3.16 µM): 96.1%
viability, T/C (second compound 0.0316 µM, first compound 10 µM): 97.7%
viability, T/C [5]: 103%
viability, T/C [6]: 99.2%
viability, T/C (second compound 0.1 µM, first compound 0.316 µM): 98%
viability, T/C (second compound 0.1 µM, first compound 1 µM): 86.7%
viability, T/C (second compound 0.1 µM, first compound 3.16 µM): 78.3%
viability, T/C (second compound 0.1 µM, first compound 10 µM): 76.5%
viability, T/C [7]: 102%
viability, T/C [8]: 106%
viability, T/C (second compound 0.316 µM, first compound 0.316 µM): 106%
viability, T/C (second compound 0.316 µM, first compound 1 µM): 94.5%
viability, T/C (second compound 0.316 µM, first compound 3.16 µM): 81.2%
viability, T/C (second compound 0.316 µM, first compound 10 µM): 78%
viability, T/C [9]: 106%
viability, T/C [10]: 94.1%
viability, T/C (second compound 1 µM, first compound 0.316 µM): 103%
viability, T/C (second compound 1 µM, first compound 1 µM): 97.2%
viability, T/C (second compound 1 µM, first compound 3.16 µM): 82.6%
viability, T/C (second compound 1 µM, first compound 10 µM): 94.8%
